Tested on: HIF-1α
Test: TMT MS proteomics in HeLa cells, HIF-1α level
Format: cell-based, Human
Conditions: 1 µM, 10 h
Method: MS proteomics. Sample preparation. HeLa cells were seeded at 5 × 10^6 on a 10 cm plate 16 h before treatment. […] Cells were incubated at 37 °C and 5% CO2 for 10 h before harvesting. Cells were placed on ice and medium was removed and cells were washed twice with cold PBS. Cells were lysed in 0.5 ml of 100 mM Tris pH 8.0, 4% (w/v) SDS supplemented with protease inhibitor cocktail (Roche). The lysate was pulse sonicated briefly and then centrifuged at 17,000 × g for 15 min at 4 °C. The supernatant fraction of cell extract was snap-frozen in liquid nitrogen and stored in −80 °C freezer. Further sample processing, digestion, desalting, labeling and fractionation were performed as previously described.
nLC-MS/MS analysis. The TMT 10plex fractions were first analyzed as previously described. Briefly, the TMT 10plex fractions were analyzed sequentially on a Q Exactive HF Hybrid Quadrupole-Orbitrap Mass Spectrometer (Thermo Scientific) coupled to an UltiMate 3000 RSLCnano UHPLC system (Thermo Scientific) and EasySpray column (75 μm × 50 cm, PepMap RSLC C18 column, 2 μm, 100 Å, Thermo Scientific). The MS2 isolation window was set to 0.4 Da and the resolution set at 120,000. MS2 resolution was set at 60,000. […] After the first analysis, the TMT labeled fractions were re-analyzed on the Q-Exactive HF using the same instrument settings and a target list generated from a theoretical trypsin digest of VHL. […]

Q: How did the “protein levels of HIF-1α relative to DMSO” value turn out when `Cc1ncsc1-c1ccc(CNC(=O)[C@@H]2C[C@@H](O)CN2C(=O)[C@@H](NC(=O)COCCOCCOCCOCC(=O)N[C@H](C(=O)N2C[C@H](O)C[C@H]2C(=O)NCc2ccc(-c3scnc3C)cc2)C(C)(C)C)C(C)(C)C)cc1` [CM09, N ^1 ,N ^14-bis((S)-1-((2S,4R)-4-hydroxy-2-((4-(4-methylthiazol-5-yl)benzyl)carbamoyl)pyrrolidin-1-yl)-3,3-dimethyl-1-oxobutan-2-yl)-3,6,9,12-tetraoxatetradecanediamide] was run?
A: The value was “small decrease”.

Source: paper PMC5635026, “Homo-PROTACs: bivalent small-molecule dimerizers of the VHL E3 ubiquitin ligase to induce self-degradation” (Nature Communications, 2017)
